The values below are quoted from earlier work in publication PMC7520961, “Safety evaluation of the interchangeable use of robenacoxib in commercially-available tablets and solution for injection in cats” (BMC Veterinary Research, 2020).

For one data set, the system named is anesthetized cats. The note with it: cited from earlier work.
For another data set, the system named is humans. The note with it: in vivo; cited from earlier work.

As for `CCC[S+]([O-])CCCN(CC)CC(O)COc1ccc(C#N)cc1` (stereo not shown) [almokalant], in the data set on anesthetized cats (almokalant infusion), the QT interval maximum is recorded as 349 ± 8.0 ms and the “lengthening of the QT interval” value is listed as “approximately 45%”. Also, in the data set with anesthetized cats (before almokalant effect), the “QT interval before lengthening” value was 241 ± 6.0 ms.
`CS(=O)(=O)c1ccc(C2=C(c3ccccc3)C(=O)OC2)cc1` [rofecoxib]: in the data set with humans, the adverse oral reaction entry is “Oral ulceration”.
